Data reported in patent publication US20090170939A1, “Use of Fenofibrate or a Derivative Thereof for Preventing Diabetic Retinopathy” (Laboratoires Fournier S.A., priority 2005, published 2009).

System: diabetic retinopathy in patients with type 2 diabetes
Experiment: FIELD study: laser treatment for diabetic retinopathy (tertiary outcome)
Type: in vivo, human
Conditions: follow-up more than 5 years
Text: As fibrates are known to correct the typical dyslipidaemia of diabetes, their role in cardiovascular risk reduction in diabetes may be especially important. A study called Fenofibrate Intervention and Event Lowering in Diabetes (FIELD) has been carried out which study is a multicentre, double-blind, placebo-controlled trail evaluating the effects on coronary morbidity and mortality of long-term treatment with fenofibrate to elevate high-density lipoprotein (HDL) cholesterol levels and lower triglyceride (TG) levels in patients with type 2 diabetes and total blood cholesterol between 3 and 6.5 mmol/L (115 and 250 mg/dL) at study entry. In type 2 diabetes, rates of coronary heart disease (CDH) are 3 to 4 times higher than those of persons without diabetes at any given level of blood cholesterol, and at any given age. […] Further, people with type 2 diabetes have both higher in hospital mortality after myocardial infarction (MI) and a poorer outcome in the subsequent years, losing on average between 5 and 10 years of life expectancy.
The study was is randomized, double-blind, placebo-controlled parallel-group trial among middle-aged to elderly people with type 2 diabetes mellitus considered to be at increased risk of CHD. Those with and without pre-existing vascular disease or other lipid abnormalities, such as low HDL cholesterol and elevated TG, were eligible, provided the total blood cholesterol level at screening fell between 3.0 and 6.5 mmol/L (about 115-250 mg/dL) plus either a total-to-HDL cholesterol ratio of >4.0 or a blood TG level >1.0 mmol/L (88.6 mg/dL). The study has been conducted in 63 clinical centres in Australia (39), Finland (9) and New Zealand (15).
The underlying principle guiding recruitment of patients into the study was that of clinical uncertainty: that is, patients were only to be considered if the patients' treating physicians were substantially uncertain about the value of lipid-modifying therapy for that particular individual and felt that there was no indication for lipid-modifying therapy. […]

## CC(C)OC(=O)C(C)(C)Oc1ccc(C(=O)c2ccc(Cl)cc2)cc1 [Fenofibrate, 1-methylethyl ester (isopropyl ester) of fenofibric acid]
Fenofibrate 200 mg comicronized, one capsule daily, type 2 diabetes
  Patients with laser treatment for diabetic retinopathy (one or more laser treatments), %: 3.6%
Fenofibrate 200 mg daily
  Incident cases (first laser treatment for retinopathy post-randomisation), %: 2.3%
  Prevalent cases (all reported laser treatments post-randomisation), %: 7.3%
